According to US20250298019A1, “BORRELIA BURGDORFERI PEPTIDOGLYCAN DETECTION METHODS” (VIRGINIA TECH INTELLECTUAL PROPERTIES, INC., priority 2021, published 2025):

Tested on: B. burgdorferi 5A11
Test: Growth of B. burgdorferi in BSK-II medium with GlcNAc replaced by other N-acetylated sugars
Assay type: cell-based, Borrelia burgdorferi
Conditions: FIG. 7; for ability to support growth in the absence of GlcNAc: GlcNAc-free BSK-II supplemented with the sugar, 37° C., 5% CO2

| Compound | ability to support growth in the absence of GlcNAc | replication rate and final density compared with GlcNAc (5A11 in BSK-II complete media supplemented with the sugar, three independent cultures) |
| --- | --- | --- |
| CC(=O)N[C@H]1C(O)O[C@H](CO)[C@H](O)[C@@H]1O (stereo partly drawn) [GalNAc, N-acetylgalactosamine] | support growth in the absence of GlcNAc | – |
| CC(=O)N[C@@H]1C(O)O[C@H](CO)[C@@H](O)[C@@H]1O (stereo partly drawn) [ManNAc, N-acetylmannosamine] | support growth in the absence of GlcNAc | replicated at a similar rate and reached a comparable final density to GlcNAc |
